Experimental data reported in patent US8124566B2 (priority 2004, dated 2012).
“And” between values parts separate entries of the source, which are not always exact repeats. Equal entries are not always repeated. Where two headings read alike, the source gives them in different places.

Key:
Format in all cases: cell-based
Conditions in all cases: active ingredient alone
Botrytis cinerea = experiment: Fungal growth assay, Botrytis cinerea (Example B-1 a)
Pyrenophora teres = experiment: Fungal growth assay, Pyrenophora teres (Example B-5 a)
Venturia inaequalis = experiment: Fungal growth assay, Venturia inaequalis (Example B-6 a)
Pyricularia oryzae = system: Pyricularia oryzae
Leptosphaeria nodorum = experiment: Fungal growth assay, Leptosphaeria nodorum (Example B-8)
Septoria tritici = experiment: Fungal growth assay, Septoria tritici (Example B-2 a)
Alternaria solani = experiment: Fungal growth assay, Alternaria solani (Example B-4 a)
Pythium ultimum = experiment: Fungal growth assay, Pythium ultimum (Example B-7)

SMILES: CO/C=C(/C(=O)OC)c1ccccc1COc1cccc(C(F)(F)F)n1 [Picoxystrobin]
- Observed control in % (% Cobs) (Botrytis cinerea; 0.0222 ppm [mg/L]): 0%
- Observed control in % (% Cobs) (Botrytis cinerea; 0.0667 ppm [mg/L]): 6%
- Observed control in % (% Cobs) (Botrytis cinerea; 0.2000 ppm [mg/L]): 12%
- Observed control in % (% Cobs) (Botrytis cinerea; 0.6000 ppm [mg/L]): 20%

SMILES: C#CCOc1ccc(CCNC(=O)C(OCC#C)c2ccc(Cl)cc2)cc1OC (stereo not drawn) [Cpd F-1]
- Observed control in % (% Cobs) (Pyrenophora teres; 5.4 ppm [mg/L]): 2%
- Observed control in % (% Cobs) (Pyrenophora teres; 16.2 ppm [mg/L]): 6%

SMILES: OC(Cc1ccccc1Cl)(Cn1nc[nH]c1=S)C1(Cl)CC1 (stereo not drawn) [Prothioconazole]
- Observed control in % (% Cobs) (Botrytis cinerea; 0.0222 ppm [mg/L]): 8%
- Observed control in % (% Cobs) (Botrytis cinerea; 0.0667 ppm [mg/L]): 17%
- Observed control in % (% Cobs) (Botrytis cinerea; 0.2000 ppm [mg/L]): 52%

SMILES: CC(Cc1ccc(C(C)(C)C)cc1)CN1C[C@@H](C)O[C@@H](C)C1 (stereo partly drawn) [Fenpropimorph]
- Observed control in % (% Cobs) (Venturia inaequalis; 0.0025 ppm [mg/L]): 0%
- Observed control in % (% Cobs) (Venturia inaequalis; 0.0222 ppm [mg/L]): 33%

SMILES: Cc1cc(C2CC2)nc(Nc2ccccc2)n1 [Cyprodinil]
- Observed control in % (% Cobs) (Pyricularia oryzae; 0.002 ppm [mg/L]): 0%
- Observed control in % (% Cobs) (Pyricularia oryzae; 0.007 ppm [mg/L]): 0%
- Observed control in % (% Cobs) (Pyricularia oryzae; 0.067 ppm [mg/L]): 0%

SMILES: CO/C=C(/C(=O)OC)c1ccccc1Oc1cc(Oc2ccccc2C#N)ncn1 [Azoxystrobin]
- Observed control in % (% Cobs) (Botrytis cinerea; 0.60 ppm [mg/L]): 7%
- Observed control in % (% Cobs) (Botrytis cinerea; 1.80 ppm [mg/L]): 14%

SMILES: Fc1ccc([C@]2(Cn3cncn3)O[C@H]2c2ccccc2Cl)cc1 (racemic) [Epoxiconazole]
- Observed control in % (% Cobs) (Leptosphaeria nodorum; 0.0025 ppm [mg/L]): 9%
- Observed control in % (% Cobs) (Leptosphaeria nodorum; 0.0222 ppm [mg/L]): 39%

SMILES: CCCC1COC(Cn2cncn2)(c2ccc(Cl)cc2Cl)O1 (stereo not drawn) [Propiconazole]
- Observed control in % (% Cobs) (Septoria tritici; 0.007 ppm [mg/L]): 0%
- Observed control in % (% Cobs) (Septoria tritici; 0.067 ppm [mg/L]): 7%

SMILES: CC(C1CC1)C(O)(Cn1cncn1)c1ccc(Cl)cc1 (stereo not drawn) [Cyproconazole]
- Observed control in % (% Cobs) (Pyricularia oryzae; 0.022 ppm [mg/L]): 0%
- Observed control in % (% Cobs) (Pyricularia oryzae; 0.200 ppm [mg/L]): 0%

SMILES: CC(C)C1C2CCC1c1c(NC(=O)c3cn(C)nc3C(F)F)cccc12 (racemic) [Cpd Ic]
- Observed control in % (% Cobs) (Botrytis cinerea; 0.0025 ppm [mg/L]): 0%
- Observed control in % (% Cobs) (Botrytis cinerea; 0.0074 ppm [mg/L]): 10%
- Observed control in % (% Cobs) (Botrytis cinerea; 0.0222 ppm [mg/L]): 23% and 18% and 12%
- Observed control in % (% Cobs) (Botrytis cinerea; 0.0667 ppm [mg/L]): 35% and 28%
- Observed control in % (% Cobs) (Botrytis cinerea; 0.2000 ppm [mg/L]): 71%
- Observed control in % (% Cobs) (Septoria tritici; 0.0001 ppm [mg/L]): 1%
- Observed control in % (% Cobs) (Septoria tritici; 0.0008 ppm [mg/L]): 13%
- Observed control in % (% Cobs) (Pyricularia oryzae; 0.0001 ppm [mg/L]): 2%
- Observed control in % (% Cobs) (Pyricularia oryzae; 0.0008 ppm [mg/L]): 3%
- Observed control in % (% Cobs) (Pyricularia oryzae; 0.0025 ppm [mg/L]): 13% and 6%
- Observed control in % (% Cobs) (Pyricularia oryzae; 0.0074 ppm [mg/L]): 33%
- Observed control in % (% Cobs) (Pyricularia oryzae; 0.0222 ppm [mg/L]): 59%
- Observed control in % (% Cobs) (Alternaria solani; 0.0025 ppm [mg/L]): 8%
- Observed control in % (% Cobs) (Alternaria solani; 0.0074 ppm [mg/L]): 27%
- Observed control in % (% Cobs) (Pyrenophora teres; 0.0667 ppm [mg/L]): 37%
- Observed control in % (% Cobs) (Pyrenophora teres; 0.2000 ppm [mg/L]): 55%
- Observed control in % (% Cobs) (Venturia inaequalis; 0.0222 ppm [mg/L]): 6% and 10%
- Observed control in % (% Cobs) (Venturia inaequalis; 0.0667 ppm [mg/L]): 18%
- Observed control in % (% Cobs) (Venturia inaequalis; 0.2000 ppm [mg/L]): 59%
- Observed control in % (% Cobs) (Pythium ultimum; 0.0667 ppm [mg/L]): 0%
- Observed control in % (% Cobs) (Pythium ultimum; 0.2000 ppm [mg/L]): 0%
- Observed control in % (% Cobs) (Pythium ultimum; 0.6000 ppm [mg/L]): 0%
- Observed control in % (% Cobs) (Leptosphaeria nodorum; 0.0222 ppm [mg/L]): 0%
- Observed control in % (% Cobs) (Leptosphaeria nodorum; 0.0667 ppm [mg/L]): 0%
- Observed control in % (% Cobs) (Leptosphaeria nodorum; 0.2000 ppm [mg/L]): 0%

SMILES: CC1CCN(c2c(-c3c(F)cc(F)cc3F)c(Cl)nc3ncnn23)CC1 [Cpd B-1]
- Observed control in % (% Cobs) (Venturia inaequalis; 0.0008 ppm [mg/L]): 17%
- Observed control in % (% Cobs) (Venturia inaequalis; 0.0025 ppm [mg/L]): 32%
- Observed control in % (% Cobs) (Venturia inaequalis; 0.0074 ppm [mg/L]): 61%

SMILES: N#Cc1c[nH]cc1-c1cccc2c1OC(F)(F)O2 [Fludioxonil]
- Observed control in % (% Cobs) (Alternaria solani; 0.022 ppm [mg/L]): 1%
- Observed control in % (% Cobs) (Alternaria solani; 0.067 ppm [mg/L]): 24%

SMILES: CC1COC(Cn2cncn2)(c2ccc(Oc3ccc(Cl)cc3)cc2Cl)O1 (stereo not drawn) [Difenoconazole]
- Observed control in % (% Cobs) (Leptosphaeria nodorum; 0.0008 ppm [mg/L]): 5%
- Observed control in % (% Cobs) (Leptosphaeria nodorum; 0.0025 ppm [mg/L]): 16%
- Observed control in % (% Cobs) (Leptosphaeria nodorum; 0.0074 ppm [mg/L]): 73%

SMILES: CC(Cc1ccc(C(C)(C)C)cc1)CN1CCCCC1 (stereo not drawn) [Fenpropidin]
- Observed control in % (% Cobs) (Pythium ultimum; 5.4000 ppm [mg/L]): 11%
- Observed control in % (% Cobs) (Pythium ultimum; 16.2000 ppm [mg/L]): 34%

SMILES: N#Cc1c(Cl)c(Cl)c(Cl)c(C#N)c1Cl [Chlorothalonil]
- Observed control in % (% Cobs) (Pyricularia oryzae; 0.002 ppm [mg/L]): 0%
- Observed control in % (% Cobs) (Pyricularia oryzae; 0.007 ppm [mg/L]): 0%
- Observed control in % (% Cobs) (Pyricularia oryzae; 0.067 ppm [mg/L]): 0%
